# Results taken from ChEMBL document CHEMBL3286154, “Oxabicyclooctane-linked novel bacterial topoisomerase inhibitors as broad spectrum antibacterial agents” (ACS Med Chem Lett, 2014).
# Activity calls are given as the source filed them. The rule behind the calls is not given here.
# Columns and labels:
# Liver = assay: Metabolic stability in mouse liver microsomes after 30 to 60 mins; type: ADME
# Liver microsome [1] = assay: Metabolic stability in dog liver microsomes after 30 to 60 mins; type: ADME, Canis lupus familiaris
# Staphylococcus aureus [2] = assay: Antibacterial activity against Staphylococcus aureus infected in po dosed ICR mouse assessed as increase in mouse survival after 7 days; type: functional; settings: 168 h
# Mus musculus = assay: Dose normalized AUC in C57BL/6 mouse at 1 mg/kg, iv and 2 mg/kg, po; type: ADME, organism-based; settings: in vivo
# [3] = Plasma clearance in C57BL/6 mouse at 1 mg/kg, iv and 2 mg/kg, po; type: ADME, organism-based
# [4] = Volume of distribution at steady state in C57BL/6 mouse at 1 mg/kg, iv and 2 mg/kg, po; type: ADME, organism-based; settings: in vivo, read-out: Vdss
# [5] = Half life in C57BL/6 mouse at 1 mg/kg, iv and 2 mg/kg, po; type: ADME, organism-based; settings: in vivo
# [6] = Oral bioavailability in C57BL/6 mouse at 2 mg/kg; type: ADME, organism-based; settings: in vivo
# Staphylococcus aureus [7] = assay: Antibacterial activity against methicillin-sensitive Staphylococcus aureus; type: functional
# Staphylococcus aureus [8] = assay: Antibacterial activity against methicillin-resistant Staphylococcus aureus; type: functional
# Streptococcus pneumoniae = assay: Antibacterial activity against Streptococcus pneumoniae; type: functional
# Enterococcus faecalis = assay: Antibacterial activity against Enterococcus faecalis; type: functional
# Enterococcus faecium = assay: Antibacterial activity against vancomycin-resistant Enterococcus faecium; type: functional
# Escherichia coli [9] = assay: Antibacterial activity against Escherichia coli; type: functional
# Acinetobacter baumannii = assay: Antibacterial activity against Acinetobacter baumannii; type: functional
# Pseudomonas aeruginosa = assay: Antibacterial activity against Pseudomonas aeruginosa; type: functional
# Staphylococcus aureus [10] = assay: Antibacterial activity against quinolone-sensitive Staphylococcus aureus; type: functional
# Staphylococcus aureus [11] = assay: Antibacterial activity against quinolone-resistant Staphylococcus aureus; type: functional
# Staphylococcus aureus [12] = assay: Antibacterial activity against Staphylococcus aureus in presence of 50% human serum; type: functional, organism-based
# Staphylococcus aureus [13] = assay: Antibacterial activity against Staphylococcus aureus in presence of 500 ug/ml sheared DNA; type: functional, organism-based
# Staphylococcus aureus [14] = assay: Antibacterial activity against Staphylococcus aureus infected in iv dosed ICR mouse assessed as increase in mouse survival after 7 days; type: functional; settings: 168 h
# [15] = Unbound fraction in human plasma; type: ADME, cell-free
# [16] = Unbound fraction in dog plasma; type: ADME, cell-free, Canis lupus familiaris
# [17] = Unbound fraction in mouse plasma; type: ADME, cell-free
# Liver microsome [18] = assay: Metabolic stability in human liver microsomes after 30 to 60 mins; type: ADME
# Escherichia coli [19] = assay: Antibacterial activity against Escherichia coli infected in iv dosed ICR mouse assessed as increase in mouse survival after 7 days; type: functional; settings: 168 h
# Escherichia coli [20] = assay: Antibacterial activity against Escherichia coli infected in po dosed ICR mouse assessed as increase in mouse survival after 7 days; type: functional; settings: 168 h
# Canis familiaris = assay: Dose normalized AUC in beagle dog at 1 mg/kg, iv and 2 mg/kg, po; type: ADME, organism-based, Canis lupus familiaris; settings: in vivo
# [21] = Plasma clearance in beagle dog at 1 mg/kg, iv and 2 mg/kg, po; type: ADME, organism-based, Canis lupus familiaris
# [22] = Volume of distribution at steady state in beagle dog at 1 mg/kg, iv and 2 mg/kg, po; type: ADME, organism-based, Canis lupus familiaris; settings: in vivo, read-out: Vdss
# [23] = Half life in beagle dog at 1 mg/kg, iv and 2 mg/kg, po; type: ADME, organism-based, Canis lupus familiaris; settings: in vivo
# [24] = Oral bioavailability in beagle dog at 2 mg/kg; type: ADME, organism-based, Canis lupus familiaris; settings: in vivo
# Haemophilus influenzae = assay: Antibacterial activity against Haemophilus influenzae; type: functional
# Moraxella catarrhalis = assay: Antibacterial activity against Moraxella catarrhalis; type: functional
# DNA gyrase = DNA gyrase (Staphylococcus aureus, UniProt P0A0K8+P20831); assay: Inhibition of Staphylococcus aureus DNA gyrase; type: protein-complex assay
# Chain of DNA gyrase (P0A0K8 whole entry): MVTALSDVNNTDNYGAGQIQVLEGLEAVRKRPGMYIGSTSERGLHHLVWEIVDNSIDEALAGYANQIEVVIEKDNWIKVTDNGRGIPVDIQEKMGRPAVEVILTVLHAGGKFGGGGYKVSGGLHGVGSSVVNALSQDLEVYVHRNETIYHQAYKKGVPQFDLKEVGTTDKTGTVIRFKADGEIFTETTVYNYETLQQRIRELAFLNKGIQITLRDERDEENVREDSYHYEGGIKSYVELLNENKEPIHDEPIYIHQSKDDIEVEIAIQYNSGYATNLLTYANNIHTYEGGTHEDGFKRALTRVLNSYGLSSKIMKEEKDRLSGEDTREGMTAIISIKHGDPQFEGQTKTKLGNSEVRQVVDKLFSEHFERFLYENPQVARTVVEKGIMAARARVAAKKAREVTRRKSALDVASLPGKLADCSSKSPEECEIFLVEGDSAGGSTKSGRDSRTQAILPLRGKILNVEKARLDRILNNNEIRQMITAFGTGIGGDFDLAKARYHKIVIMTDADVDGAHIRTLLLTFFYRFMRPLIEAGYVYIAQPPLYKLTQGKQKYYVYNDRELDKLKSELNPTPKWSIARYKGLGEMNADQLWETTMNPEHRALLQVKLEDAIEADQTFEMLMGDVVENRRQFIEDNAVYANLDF
# Chain of DNA gyrase (P20831 whole entry): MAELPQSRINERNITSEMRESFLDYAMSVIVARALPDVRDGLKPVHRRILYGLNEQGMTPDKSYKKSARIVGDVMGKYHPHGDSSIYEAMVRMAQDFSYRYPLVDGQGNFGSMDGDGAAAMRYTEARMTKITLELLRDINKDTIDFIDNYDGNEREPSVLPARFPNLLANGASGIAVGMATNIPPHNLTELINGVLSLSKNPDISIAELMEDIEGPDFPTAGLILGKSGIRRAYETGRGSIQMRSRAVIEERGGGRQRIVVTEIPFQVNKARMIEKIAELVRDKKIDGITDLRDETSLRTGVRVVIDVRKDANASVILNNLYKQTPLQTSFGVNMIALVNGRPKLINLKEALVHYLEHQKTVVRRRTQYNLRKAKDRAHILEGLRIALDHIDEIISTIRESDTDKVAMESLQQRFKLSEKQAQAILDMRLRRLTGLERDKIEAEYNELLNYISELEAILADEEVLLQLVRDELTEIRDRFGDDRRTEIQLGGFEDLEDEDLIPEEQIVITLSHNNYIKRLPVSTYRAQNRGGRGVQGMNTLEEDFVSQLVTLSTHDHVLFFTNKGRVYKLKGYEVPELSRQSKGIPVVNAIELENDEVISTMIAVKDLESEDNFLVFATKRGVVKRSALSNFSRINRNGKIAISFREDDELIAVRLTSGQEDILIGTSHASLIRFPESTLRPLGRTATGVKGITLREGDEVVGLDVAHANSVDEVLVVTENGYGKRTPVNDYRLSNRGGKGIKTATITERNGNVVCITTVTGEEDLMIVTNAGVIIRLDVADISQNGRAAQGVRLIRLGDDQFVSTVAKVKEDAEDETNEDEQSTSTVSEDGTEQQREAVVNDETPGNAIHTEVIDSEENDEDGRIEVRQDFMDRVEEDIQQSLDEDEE
# [25] = Inhibition of Staphylococcus aureus DNA topoisomerase 4
# [26] = Inhibition of Escherichia coli gyrase
# [27] = Inhibition of Escherichia coli topoisomerase 4
# [28] = Solubility of the compound in PBS at pH 2; type: physicochemical
# Staphylococcus aureus [29] = assay: Antibacterial activity against Staphylococcus aureus ATCC 29213 assessed as reduction of colony forming units using > 10^5 CFU/ml inoculum at 0.06 to 0.12 ug/ml by time kill experiment; type: functional
# [30] = Solubility of the compound in PBS at pH 7; type: physicochemical
# Staphylococcus aureus [31] = assay: Inhibition of DNA synthesis in Staphylococcus aureus using radioligand at 0.001 to 1 ug/ml by scintillation counting
smiles,measurement,setting,value
COc1ccc2ncc(F)c(C[C@@H](O)C34CCC(NCc5ccc6c(n5)NC(=O)CO6)(CC3)CO4)c2n1.Cl,Stability,Liver,Stable
same,Stability,Liver microsome [1],Stable
same,ED50,Staphylococcus aureus [2],4.5 mg/kg
same,AUC/dose,Mus musculus,0.68 µM·h/mpk
same,clearance,[3],48.7 mL/min/kg
same,Vd,[4],4.94 L/kg
same,half-life,[5],2.15 h
same,bioavailability,[6],25.3%
same,MIC,Staphylococcus aureus [7],0.06 µg/mL
same,MIC,Staphylococcus aureus [8],0.5 µg/mL
same,MIC,Streptococcus pneumoniae,0.25 µg/mL
same,MIC,Enterococcus faecalis,1 µg/mL
same,MIC,Enterococcus faecium,2 µg/mL
same,MIC,Escherichia coli [9],4 µg/mL
same,MIC,Acinetobacter baumannii,1 µg/mL
same,MIC,Pseudomonas aeruginosa,8 µg/mL
same,MIC,Staphylococcus aureus [10],0.06 µg/mL
same,MIC,Staphylococcus aureus [11],0.5 µg/mL
same,Activity,Staphylococcus aureus [12],Active
same,Activity,Staphylococcus aureus [13],Active
same,ED50,Staphylococcus aureus [14],3.5 mg/kg
same,fraction unbound,[15],> 0.25
same,fraction unbound,[16],> 0.25
same,fraction unbound,[17],> 0.25
same,Stability,Liver microsome [18],Stable
COc1ccc2ncc(F)c(C[C@H](O)C34CCC(NCc5ccc6c(n5)NC(=O)CO6)(CC3)CO4)c2n1.Cl,Stability,Liver,Stable
same,Stability,Liver microsome [1],Stable
same,ED50,Staphylococcus aureus [2],2.2 mg/kg
same,ED50,Escherichia coli [19],23 mg/kg
same,ED50,Escherichia coli [20],85 mg/kg
same,AUC/dose,Mus musculus,0.76 µM·h/mpk
same,clearance,[3],43.3 mL/min/kg
same,Vd,[4],1.61 L/kg
same,half-life,[5],1.7 h
same,bioavailability,[6],30.1%
same,AUC/dose,Canis familiaris,3.57 µM·h
same,clearance,[21],9.16 mL/min/kg
same,Vd,[22],2.6 L/kg
same,half-life,[23],4.49 h
same,bioavailability,[24],40.4%
same,MIC,Staphylococcus aureus [7],0.02 µg/mL
same,MIC,Staphylococcus aureus [8],0.06 µg/mL
same,MIC,Streptococcus pneumoniae,0.05 µg/mL
same,MIC,Enterococcus faecalis,0.5 µg/mL
same,MIC,Enterococcus faecium,0.5 µg/mL
same,MIC,Haemophilus influenzae,0.5 µg/mL
same,MIC,Escherichia coli [9],2 µg/mL
same,MIC,Acinetobacter baumannii,0.5 µg/mL
same,MIC,Moraxella catarrhalis,0.015 µg/mL
same,MIC,Pseudomonas aeruginosa,8 µg/mL
same,MIC,Staphylococcus aureus [10],0.06 µg/mL
same,MIC,Staphylococcus aureus [11],0.25 µg/mL
same,IC50,DNA gyrase,1020 nM
same,IC50,[25],10400 nM
same,IC50,[26],780 nM
same,IC50,[27],500 nM
same,solubility,[28],200 µM
same,Activity,Staphylococcus aureus [12],Active
same,Activity,Staphylococcus aureus [13],Active
same,ED50,Staphylococcus aureus [14],2.5 mg/kg
same,log10cfu,Staphylococcus aureus [29],>3
same,solubility,[30],154 µM
same,fraction unbound,[15],> 0.25
same,fraction unbound,[16],> 0.25
same,fraction unbound,[17],> 0.25
same,Stability,Liver microsome [18],Stable
COc1ccc2ncc(F)c(CCC34CCC(NCc5ccc6c(n5)NC(=O)CO6)(CC3)CO4)c2n1.Cl,Stability,Liver,Stable
same,Stability,Liver microsome [1],Stable
same,ED50,Staphylococcus aureus [2],17 mg/kg
same,AUC/dose,Mus musculus,0.98 µM·h/mpk
same,clearance,[3],34.6 mL/min/kg
same,Vd,[4],2.22 L/kg
same,half-life,[5],2.24 h
same,bioavailability,[6],71.6%
same,AUC/dose,Canis familiaris,0.43 µM·h
same,clearance,[21],39.8 mL/min/kg
same,Vd,[22],5.36 L/kg
same,half-life,[23],1.85 h
same,bioavailability,[24],> 100%
same,MIC,Staphylococcus aureus [7],0.016 µg/mL
same,MIC,Staphylococcus aureus [8],0.008 µg/mL
same,MIC,Streptococcus pneumoniae,0.064 µg/mL
same,MIC,Enterococcus faecalis,1 µg/mL
same,MIC,Enterococcus faecium,0.5 µg/mL
same,MIC,Haemophilus influenzae,1 µg/mL
same,MIC,Escherichia coli [9],1 µg/mL
same,MIC,Acinetobacter baumannii,0.5 µg/mL
same,MIC,Pseudomonas aeruginosa,4 µg/mL
same,MIC,Staphylococcus aureus [10],0.016 µg/mL
same,MIC,Staphylococcus aureus [11],0.064 µg/mL
same,IC50,DNA gyrase,220 nM
same,IC50,[25],4400 nM
same,IC50,[26],180 nM
same,IC50,[27],200 nM
same,solubility,[28],20.3 µM
same,Activity,Staphylococcus aureus [12],inactive
same,Activity,Staphylococcus aureus [13],inactive
same,ED50,Staphylococcus aureus [14],5.5 mg/kg
same,solubility,[30],< 0.89 µM
same,fraction unbound,[15],< 0.02
same,fraction unbound,[16],< 0.02
same,fraction unbound,[17],< 0.02
same,Stability,Liver microsome [18],Stable
same,inhibition,Staphylococcus aureus [31],Active
